From ChEMBL document CHEMBL1201862, “PubChem BioAssay data set” (2004)
The source made the active and inactive calls.

How the values were obtained:
Candida albicans [1] = experiment: fluconazole-resistant Candida strain growth inhibitors – CaCi-8 strain, dry powder, set 4, dose response (AID 488950); assay type: functional, organism-based
Candida albicans [2] = experiment: single-agent toxicity toward C. albicans – CaCi-2 strain, no fluconazole, dry powder, set 4, counter-screen for reversing antifungal drug resistance, dose response (AID 488932); assay type: functional, organism-based
Candida albicans [3] = experiment: single-agent antifungal toxicity in C. albicans – CaCi-2 strain, Alamar Blue, dry powder, set 2, counter-screen for antifungal drug resistance project, dose response (AID 488893); assay type: functional, organism-based
[4] = biological target: T1, Small ubiquitin-related modifier 1 (Homo sapiens, UniProt P63165); experiment: SUMO1 protein-protein binding blockers, potency – biochemical, FRET, dose response (AID 624383); assay type: functional; settings: read-out: IC50_Mean
[5] = biological target: T2, Apoptotic protease-activating factor 1 (Homo sapiens, UniProt O14727); experiment: activation of Apaf-1 mediated apoptosis – fluorescent, uHTS hits, dose response (AID 588554); assay type: functional
T2 sequence (O14727 whole entry): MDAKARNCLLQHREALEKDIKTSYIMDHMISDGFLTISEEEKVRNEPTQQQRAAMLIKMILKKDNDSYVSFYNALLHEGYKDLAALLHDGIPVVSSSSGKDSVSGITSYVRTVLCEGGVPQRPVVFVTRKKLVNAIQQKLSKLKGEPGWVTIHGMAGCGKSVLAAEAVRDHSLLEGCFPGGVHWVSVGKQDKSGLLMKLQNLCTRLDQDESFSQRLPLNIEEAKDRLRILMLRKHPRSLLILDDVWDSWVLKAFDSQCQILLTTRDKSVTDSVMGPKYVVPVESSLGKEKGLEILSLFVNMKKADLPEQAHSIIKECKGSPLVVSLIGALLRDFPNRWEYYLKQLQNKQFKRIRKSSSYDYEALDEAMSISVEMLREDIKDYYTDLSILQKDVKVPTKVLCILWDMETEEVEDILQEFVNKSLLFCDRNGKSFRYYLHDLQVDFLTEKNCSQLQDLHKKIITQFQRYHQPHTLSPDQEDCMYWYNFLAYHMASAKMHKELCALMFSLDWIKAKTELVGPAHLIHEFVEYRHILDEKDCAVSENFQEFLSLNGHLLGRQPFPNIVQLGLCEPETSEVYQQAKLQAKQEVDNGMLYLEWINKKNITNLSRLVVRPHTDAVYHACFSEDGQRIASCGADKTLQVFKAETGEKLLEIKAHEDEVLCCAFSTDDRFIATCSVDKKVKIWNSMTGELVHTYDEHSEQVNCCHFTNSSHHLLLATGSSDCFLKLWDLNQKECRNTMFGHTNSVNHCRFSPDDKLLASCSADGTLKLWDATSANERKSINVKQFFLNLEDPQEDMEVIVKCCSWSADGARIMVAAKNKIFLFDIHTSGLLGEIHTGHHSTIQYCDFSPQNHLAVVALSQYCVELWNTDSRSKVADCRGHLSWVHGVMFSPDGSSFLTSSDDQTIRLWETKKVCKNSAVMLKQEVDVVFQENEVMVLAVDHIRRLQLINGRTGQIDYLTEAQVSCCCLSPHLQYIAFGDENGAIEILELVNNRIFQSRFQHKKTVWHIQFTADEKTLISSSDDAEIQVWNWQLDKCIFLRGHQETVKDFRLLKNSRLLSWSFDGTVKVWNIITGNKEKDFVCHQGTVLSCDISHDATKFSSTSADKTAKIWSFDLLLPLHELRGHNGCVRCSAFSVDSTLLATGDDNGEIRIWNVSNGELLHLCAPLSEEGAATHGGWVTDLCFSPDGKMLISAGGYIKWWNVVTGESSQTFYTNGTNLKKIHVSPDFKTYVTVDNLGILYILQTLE

[6] = biological target: T2, Apoptotic protease-activating factor 1; experiment: SAR analysis of small molecule Activators of Apaf-1 in a Fluorescent assay.; assay type: functional; settings: read-out: EC50_Mean
[7] = biological target: T3, Voltage-gated N-type calcium channel alpha-1B subunit/Amyloid beta A4 precursor protein-binding family A member 1 (Homo sapiens, UniProt Q00975+Q02410); assay type: protein assay
[8] = biological target: T3, Voltage-gated N-type calcium channel alpha-1B subunit/Amyloid beta A4 precursor protein-binding family A member 1; assay type: protein assay; remark: listed apart in the source
[9] = biological target: T1, Small ubiquitin-related modifier 1; experiment: SUMO1 protein interaction blockers, potency – biochemical, fluorescence polarization, uHTS hits, dose response (AID 624382); assay type: functional; settings: read-out: IC50_Mean
Keap1/Nrf2 = Keap1/Nrf2 (Homo sapiens, UniProt Q14145); experiment: disruptors of Keap1 binding to Nrf2 peptide – biochemical, fluorescence polarization, cherry-picked samples, dose response (AID 588683)
[10] = viability of HCT116 lacking mutant beta-catenin – cell-based, human colon tumor, dose response (AID 1045); assay type: functional;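 further: HCT116 colon tumor cells with beta catenin knocked out; cells exposed to compound for 60 hours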
[11] = Luminescence Cell-Based Dose Retest to Confirm Inhibitors of Cancer Stem Cells. [Related pubchem assays (depositor defined):AID2717, AID2721]; assay type: functional; settings: Homo sapiens
[12] = biological target: T4, Microphthalmia-associated transcription factor (Homo sapiens, UniProt O75030); experiment: reducers of TRPM1 reporter luminescence, concentration series – cell-based, SK-MEL-5, cherry-picked, set 3, MITF inhibitor project, dose response (AID 493073); assay type: functional;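 further: SK-MEL-5 melanoma cells with luciferase driven by the MITF target TRPM1 promoter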
T4 sequence (O75030 whole entry): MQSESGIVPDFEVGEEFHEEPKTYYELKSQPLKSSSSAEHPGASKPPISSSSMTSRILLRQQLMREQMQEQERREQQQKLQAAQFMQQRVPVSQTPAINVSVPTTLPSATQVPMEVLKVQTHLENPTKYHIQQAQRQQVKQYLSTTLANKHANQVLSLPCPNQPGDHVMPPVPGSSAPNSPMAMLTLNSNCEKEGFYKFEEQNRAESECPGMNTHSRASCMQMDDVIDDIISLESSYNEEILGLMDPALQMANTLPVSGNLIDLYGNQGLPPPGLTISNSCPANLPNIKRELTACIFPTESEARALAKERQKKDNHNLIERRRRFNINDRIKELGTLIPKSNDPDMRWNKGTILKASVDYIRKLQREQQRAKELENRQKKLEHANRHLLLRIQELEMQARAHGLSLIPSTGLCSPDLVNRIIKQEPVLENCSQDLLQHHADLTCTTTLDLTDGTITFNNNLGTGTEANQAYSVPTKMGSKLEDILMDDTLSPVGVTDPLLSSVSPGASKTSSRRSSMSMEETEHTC

[13] = viability of PTEN-deleted HCT116 cells – cell-based, HCT116 PTEN knockout, dose response (AID 1047); assay type: functional;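 further: HCT116 colon tumor cells with PTEN knocked out; cells exposed to compound for 60 hours before readout; potency for loss of cell viability measured by luminescence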
A-375 = experiment: proliferation inhibition in MITF-low A375 cells – cell-based, cherry-pick samples, set 2, counter-screen for MITF modulator project, dose response (AID 540335); assay type: functional; settings: Homo sapiens
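Wherever EC50 Mean is given: caspase-3 cleavage of fluorogenic Rh110 DEVD substrate downstream of apoptosome activation.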

T3 sequence (Q00975 whole entry): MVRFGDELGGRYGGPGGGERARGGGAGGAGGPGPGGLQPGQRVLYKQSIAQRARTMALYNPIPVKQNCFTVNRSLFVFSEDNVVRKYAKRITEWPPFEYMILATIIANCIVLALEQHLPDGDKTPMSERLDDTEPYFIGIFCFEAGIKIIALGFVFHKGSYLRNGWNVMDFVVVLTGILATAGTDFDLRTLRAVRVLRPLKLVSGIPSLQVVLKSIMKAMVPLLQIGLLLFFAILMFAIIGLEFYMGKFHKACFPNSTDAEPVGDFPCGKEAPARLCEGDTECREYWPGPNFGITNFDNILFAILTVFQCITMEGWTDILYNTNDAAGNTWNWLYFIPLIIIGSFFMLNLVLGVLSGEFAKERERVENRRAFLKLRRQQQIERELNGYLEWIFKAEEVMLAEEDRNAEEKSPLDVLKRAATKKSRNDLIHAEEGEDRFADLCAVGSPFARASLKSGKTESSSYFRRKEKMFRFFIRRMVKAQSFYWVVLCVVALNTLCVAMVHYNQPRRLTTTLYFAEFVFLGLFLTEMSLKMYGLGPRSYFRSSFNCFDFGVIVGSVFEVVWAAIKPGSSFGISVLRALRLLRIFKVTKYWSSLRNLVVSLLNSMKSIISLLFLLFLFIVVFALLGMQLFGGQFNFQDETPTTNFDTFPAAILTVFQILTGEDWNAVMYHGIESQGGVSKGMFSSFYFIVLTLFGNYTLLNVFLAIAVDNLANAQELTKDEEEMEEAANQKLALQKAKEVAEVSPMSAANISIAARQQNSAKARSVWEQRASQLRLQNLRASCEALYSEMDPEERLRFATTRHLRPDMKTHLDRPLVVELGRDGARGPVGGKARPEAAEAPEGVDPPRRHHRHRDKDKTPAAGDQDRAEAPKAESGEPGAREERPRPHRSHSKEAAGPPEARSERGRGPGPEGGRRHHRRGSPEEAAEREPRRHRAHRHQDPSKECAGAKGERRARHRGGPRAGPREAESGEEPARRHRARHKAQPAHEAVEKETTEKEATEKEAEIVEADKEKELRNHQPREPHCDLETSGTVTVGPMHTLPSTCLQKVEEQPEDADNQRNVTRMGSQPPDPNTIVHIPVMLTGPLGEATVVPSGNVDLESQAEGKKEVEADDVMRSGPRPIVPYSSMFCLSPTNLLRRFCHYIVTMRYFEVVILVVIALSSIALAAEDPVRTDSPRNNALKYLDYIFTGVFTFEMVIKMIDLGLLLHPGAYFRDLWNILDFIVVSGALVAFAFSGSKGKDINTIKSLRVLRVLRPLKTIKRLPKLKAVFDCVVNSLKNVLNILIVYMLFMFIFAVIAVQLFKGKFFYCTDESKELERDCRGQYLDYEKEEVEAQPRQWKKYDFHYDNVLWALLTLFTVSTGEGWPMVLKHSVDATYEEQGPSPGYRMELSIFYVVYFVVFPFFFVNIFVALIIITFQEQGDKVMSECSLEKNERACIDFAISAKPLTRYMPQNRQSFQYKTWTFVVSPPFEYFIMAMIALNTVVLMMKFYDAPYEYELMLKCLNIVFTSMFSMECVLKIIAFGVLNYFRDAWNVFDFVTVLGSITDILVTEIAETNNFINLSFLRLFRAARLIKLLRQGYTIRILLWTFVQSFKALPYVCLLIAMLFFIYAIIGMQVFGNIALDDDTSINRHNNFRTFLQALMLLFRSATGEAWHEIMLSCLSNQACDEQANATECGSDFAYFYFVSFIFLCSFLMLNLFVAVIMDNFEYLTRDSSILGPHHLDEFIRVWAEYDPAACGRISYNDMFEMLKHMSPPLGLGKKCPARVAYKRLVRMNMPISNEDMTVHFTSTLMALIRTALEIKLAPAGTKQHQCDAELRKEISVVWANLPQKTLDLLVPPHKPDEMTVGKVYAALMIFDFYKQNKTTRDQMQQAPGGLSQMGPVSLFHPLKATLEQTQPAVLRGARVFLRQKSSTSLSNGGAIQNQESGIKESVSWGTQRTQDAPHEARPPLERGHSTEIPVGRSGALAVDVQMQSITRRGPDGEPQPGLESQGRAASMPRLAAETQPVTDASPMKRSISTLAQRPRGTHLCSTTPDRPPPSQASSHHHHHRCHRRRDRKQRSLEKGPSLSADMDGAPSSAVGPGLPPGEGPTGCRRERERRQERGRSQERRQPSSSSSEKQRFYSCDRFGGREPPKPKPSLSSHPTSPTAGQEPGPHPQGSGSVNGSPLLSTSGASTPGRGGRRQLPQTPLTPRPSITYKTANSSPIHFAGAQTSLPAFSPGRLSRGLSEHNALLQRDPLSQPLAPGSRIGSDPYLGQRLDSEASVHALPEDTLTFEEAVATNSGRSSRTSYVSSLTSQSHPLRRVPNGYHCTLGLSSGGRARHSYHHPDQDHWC
T3 sequence (Q02410 whole entry): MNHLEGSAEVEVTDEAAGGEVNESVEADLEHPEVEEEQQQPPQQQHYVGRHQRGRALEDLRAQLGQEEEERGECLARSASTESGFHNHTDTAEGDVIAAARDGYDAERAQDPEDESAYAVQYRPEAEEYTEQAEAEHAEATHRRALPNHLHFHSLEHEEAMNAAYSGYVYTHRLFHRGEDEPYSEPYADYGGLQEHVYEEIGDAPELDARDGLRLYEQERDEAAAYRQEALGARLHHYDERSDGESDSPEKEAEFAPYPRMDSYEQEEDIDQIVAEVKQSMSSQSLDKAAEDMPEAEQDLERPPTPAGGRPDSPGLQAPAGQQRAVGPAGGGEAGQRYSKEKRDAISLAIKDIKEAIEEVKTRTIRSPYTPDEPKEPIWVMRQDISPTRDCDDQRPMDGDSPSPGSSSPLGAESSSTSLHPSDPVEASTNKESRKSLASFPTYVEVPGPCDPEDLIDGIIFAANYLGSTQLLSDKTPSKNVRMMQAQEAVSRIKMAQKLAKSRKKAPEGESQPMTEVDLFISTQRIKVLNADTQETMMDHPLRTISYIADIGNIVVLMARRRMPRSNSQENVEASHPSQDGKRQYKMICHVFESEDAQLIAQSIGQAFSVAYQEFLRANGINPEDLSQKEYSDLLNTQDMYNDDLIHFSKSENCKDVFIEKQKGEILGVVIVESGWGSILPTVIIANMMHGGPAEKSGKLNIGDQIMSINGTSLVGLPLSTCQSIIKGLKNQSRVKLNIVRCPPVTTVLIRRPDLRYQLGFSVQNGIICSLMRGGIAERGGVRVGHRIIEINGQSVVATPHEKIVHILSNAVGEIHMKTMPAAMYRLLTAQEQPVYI
T1 sequence (P63165 whole entry): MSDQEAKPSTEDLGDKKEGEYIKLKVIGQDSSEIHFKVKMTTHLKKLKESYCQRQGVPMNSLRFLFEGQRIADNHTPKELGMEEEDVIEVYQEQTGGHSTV
Chain of Keap1/Nrf2 (Q16236 whole entry): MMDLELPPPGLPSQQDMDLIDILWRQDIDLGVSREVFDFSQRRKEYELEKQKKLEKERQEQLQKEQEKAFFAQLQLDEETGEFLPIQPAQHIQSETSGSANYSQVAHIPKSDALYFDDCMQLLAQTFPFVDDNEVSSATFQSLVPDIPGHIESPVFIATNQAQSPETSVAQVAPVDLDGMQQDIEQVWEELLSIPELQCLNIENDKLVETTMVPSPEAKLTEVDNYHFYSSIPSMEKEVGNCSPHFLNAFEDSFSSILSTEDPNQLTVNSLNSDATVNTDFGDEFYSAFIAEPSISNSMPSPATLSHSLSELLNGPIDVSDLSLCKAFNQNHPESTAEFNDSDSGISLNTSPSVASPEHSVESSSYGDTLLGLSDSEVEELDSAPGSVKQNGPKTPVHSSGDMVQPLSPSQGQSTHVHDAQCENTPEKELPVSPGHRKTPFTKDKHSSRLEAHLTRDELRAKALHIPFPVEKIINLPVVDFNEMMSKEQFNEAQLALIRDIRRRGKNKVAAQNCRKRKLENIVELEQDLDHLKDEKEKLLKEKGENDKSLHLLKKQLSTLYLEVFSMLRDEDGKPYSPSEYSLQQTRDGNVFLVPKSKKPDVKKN
Chain of Keap1/Nrf2 (Q14145 whole entry): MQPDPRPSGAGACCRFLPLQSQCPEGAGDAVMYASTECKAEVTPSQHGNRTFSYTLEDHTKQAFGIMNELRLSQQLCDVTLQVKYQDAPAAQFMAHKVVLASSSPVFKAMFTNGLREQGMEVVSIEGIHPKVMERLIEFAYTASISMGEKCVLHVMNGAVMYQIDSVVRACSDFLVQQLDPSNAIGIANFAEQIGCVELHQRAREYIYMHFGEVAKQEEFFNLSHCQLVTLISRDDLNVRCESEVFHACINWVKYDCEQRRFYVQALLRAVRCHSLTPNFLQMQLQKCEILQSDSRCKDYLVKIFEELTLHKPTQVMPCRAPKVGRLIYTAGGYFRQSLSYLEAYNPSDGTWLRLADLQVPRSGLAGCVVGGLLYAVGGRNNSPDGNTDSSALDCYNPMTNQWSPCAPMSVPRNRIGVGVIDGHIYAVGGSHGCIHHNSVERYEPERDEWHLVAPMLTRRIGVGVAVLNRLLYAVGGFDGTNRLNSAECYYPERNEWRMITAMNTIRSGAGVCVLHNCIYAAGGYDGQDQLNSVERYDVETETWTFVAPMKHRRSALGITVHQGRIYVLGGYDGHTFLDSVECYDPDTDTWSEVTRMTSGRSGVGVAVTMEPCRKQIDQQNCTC

In the case of `COCCC(=O)N1CCN(c2ccnc3cc(Cl)ccc23)CC1`, the AC50 (Candida albicans [1]) is reported as 72.5 µM (active), the AC50 (Candida albicans [2]) is reported as 136 µM (active) and the AC50 (Candida albicans [3]) is reported as > 260 µM (inactive).
For `O=C(Nc1nc2ccsc2c(=O)s1)c1ccco1`, the IC50 [4] was 15.9 µM (active), the EC50 [5] was 22.8 µM (active) and the EC50 [6] was 59 µM (active). For the same molecule, the IC50 [7] was > 50 µM (inactive), the IC50 [8] was 11.8 µM (active) and the IC50 [9] was > 66.6 µM (inactive).
With `O=c1cc(CN2CCCc3ccccc32)nc2sccn12` the AC50 (Keap1/Nrf2) was 17.1 µM (active).
For `O=C1C(Cl)=C(Nc2ccccc2)C(=O)c2ccccc21`, the EC50 [10] was 4.77 µM (active), the AC50 [11] was 0.779 µM (active) and the AC50 [12] was 2.88 µM (active). The EC50 [13] was 8.47 µM (active) and the AC50 (A-375) was 4.17 µM (active).
